Test results taken from US20040219202A1, “Pharmaceutical composition comprising lipids comprising a polar and a nonpolar moiety” (priority 2001, published 2004).
“Also recorded” adds a separate entry of the source.

Legend:
[1] = literature statement; cited from earlier work
Panc-1 cells = assay: Transfection of Panc-1 cells with LMDs (liposome:mu:DNA), β-galactosidase reporter assay; format: cell-based
Experimental: (§1) Purity of the lipids was checked by TLC or HPLC. All lipids were stored as stock solutions in anhydrous CH2Cl2, at concentrations of either 5 mg/ml or 10 mg/ml, at −80° C., under Ar. In order to prepare cationic liposomes, lipids were added to a round-bottomed flask, via syringe, under Ar, and further freshly distilled CH2Cl2 was added, if necessary, to give a concentration of around 2.5 mg/ml. Then, 4 mM HEPES pH 7.0 (1 ml) was added, and the biphasic system was swirled to mix. A liposomal suspension was created by removing the organic solvent under reduced pressure at 25° C., followed by sonication for 2-5 min. in a water bath sonicator. Doubly-distilled water was added, if necessary, to return the total volume to 1 ml. All liposomal solutions were prepared at a final concentration of 5 mg/ml. The pH of the liposomal suspension was checked by pH Boy (Camlab Ltd., Over, Cambridgeshire, UK) and adjusted to pH 7.0±0.1 with concentrated aqueous solutions of HCl and NaOH.
(§2) Liposomes were extruded (Extruder, Northern Upids, Inc., Vancouver, BC, Canada) by passing through two 100 nm polycarbonate filters (Isopore™ Membrane Filters, Millipore (UK) Ltd., Watford, Hertfordshire, UK) ten times. For each preparation, the size distribution of liposomes was measured by photon correlation spectroscopy (PCS) (Coulter® N4 Plus Submicron Particle Sizer, Beckman Coulter, High Wycombe, Buckinghamshire, UK). For phospholipid-containing liposomes, phospholipid concentrations were checked by the Stewart assay.^23 In each case, a final lipid concentration of 4.7±0.1 mg/ml was observed. For non-phospholipid containing liposomes, lipid loss was also inevitable on extrusion. For all fast-extruding liposomal suspensions, total lipid concentration was assumed to be 4.7 mg/ml. For slower extrusions, total lipid concentrations were assumed to be 4.3 mg/ml. Very slowly extruding liposomes were extruded three times only and assumed to be 4.7 mg/ml.
(§3) Plasmid DNA containing the β-galactosidase gene (pNGVL1-nt-beta-gal; 7.53 kbp) was stored as frozen aliquots at −80° C., at a concentration of 1.2 mg/ml; μ (mu) peptide (adenoviral core peptide [H2N-Met-Arg-Arg-Ala-His-His-Arg-Arg-Arg-Arg-Ala-Ser-His-Arg-Arg-Met-Arg-Gly-Gly-CO2H]) was synthesised as described previously,^7 and maintained at 4° C. in aliquots of 1 mg/ml. Mu-DNA complexes were made by adding plasmid DNA to mu in 4 mM HEPES at a ratio of 1:0.6 (w/w) with fast vortexing. LMDs were prepared by complexing mu-DNA particles with cationic liposomes (as prepared above) in a ratio of 1:12 (w/w), such that all LMDs for all formulations were substantially cationic. For each preparation, the size distribution of LMDs was measured by PCS.
Panc-1 cells were maintained in RPMI/10% FCS/1% penicillin-streptomycin (Gibco™, Invitrogen Corporation, Paisley, Scotland, UK) at 37° C./5% CO2 in a humidified atmosphere. Twenty-four hours prior to transfection, 30 000 cells per well were seeded in 48 well microtitre plates (Corning Costar, Merck Ltd., Lutterworth, Leicestershire, UK) in 500 μl medium. As a control, plasmid DNA (0.5 μg in 200 μl medium) was added to a well. As a positive control, 1.5 μl Transfast™ (Promega Corporation, Madison, Wis., USA; prepared according to the supplier's protocol) in 200 μl medium was complexed with plasmid DNA (0.5 μg) and added to a well. 5 μl (0.5 μg DNA) of LMD formulation was added to each well. All experiments were performed in quadruplicate. The plate was swirled for 30 s, and incubated for 1 h at 37° C. Medium was then removed, and 500 μl of fresh medium was added. The cells were incubated at 37° C. for a further 24 h.
Medium was aspirated from the wells and the cell layer was washed with phosphate buffered saline (PBS) (Gibco™). The cells of each well were lysed in 150 μl lysis reagent (prepared according to the supplier's protocol; β-Gal Reporter Gene Assay, Roche Diagnostics GmbH, D-68305 Mannheim, Germany) at room temperature for 30 min. […]

COS-7 cells = assay: Transfection of COS-7 cells with LMDs (liposome:mu:DNA), β-galactosidase reporter assay; format: cell-based; details: for Transfection relative to DOPE (fraction): CDAN:Helper Lipid, summary
Experimental: as §1, §2, §3
COS-7 cells were maintained in DMEM/10% FCS/1% penicillin-streptomycin (Gibco™) at 37° C./5% CO2 in a humidified atmosphere. Twenty-four hours prior to transfection, 10 000 cells per well were seeded in 48-well microtitre plates (Coming Costar) in 500 μl medium. Plasmid DNA and Transfast™ controls were prepared as above. 5 μl (0.5 μg DNA) of LMD formulation was added to each well. All experiments were performed in quadruplicate. The plate was swirled for 30 s, and incubated for 1 h at 37° C. Medium was then removed, and 500 μl of fresh medium was added. The cells were incubated at 37° C. for a further 24 h.
Medium was aspirated from the wells and the cell layer was washed with phosphate buffered saline (PBS) (Gibco™). The cells of each well were lysed in 150 μl lysis reagent (prepared according to the supplier's protocol; β-Gal Reporter Gene Assay, Roche Diagnostics GmbH, D-68305 Mannheim, Germany) at room temperature for 30 min. After lysis, […], 50 μl and 20 μl, of each cell suspension were used for the determination of β-galactosidase activity and for the determination of total cellular protein (to normalise results), respectively.
In the β-gal assay, 100 μl of the substrate reagent was added to 50 μl of the cell suspension in a white 96-well microplate (Coming Costar). […]

[2] = LMDs of CDAN:Helper Lipid, 1:1 liposomes, DOPC-analogues, FIG. 13
[3] = LMDs of CDAN:Helper Lipid, 1:1 liposomes, DOPE-analogues, FIG. 16
[4] = LMDs of CDAN:Helper Lipid, 2:3 liposomes, FIG. 17
[5] = LMDs of CDAN:Helper Lipid, 3:2 liposomes, FIG. 15
[6] = LMDs of CDAN:Helper Lipid, 1:1 liposomes, FIG. 14
[7] = LMDs of DOPE:Cationic Lipid, 1:1 liposomes, FIG. 21
[8] = LMDs of pure DOTAP or DOTAP-analogue liposomes, FIG. 20

## CCCCCCCCCCCCC#CC#CCCCCCCCCCC(=O)NCCN(CCNC(=N)N)CCNC(=N)N [BGDA, bisguanidinium-diacetylene]
[1]
  In vitro transfection in cationic liposome formulations: highly efficient

## CCCCCCCCCCCCCC#CCCC(=O)OC[C@H](COP(=O)([O-])OCC[N+](C)(C)C)OC(=O)CCC#CCCCCCCCCCCCCC [DO(4-yne)PC]
Panc-1 cells; LMDs of CDAN:Helper Lipid, 1:1 (mol/mol) liposomes, DOPC-analogues, FIG. 12
  Transfection (β-galactosidase activity): almost complete loss of any transfection ability
COS-7 cells; [2]
  Transfection (β-galactosidase activity): a fall in transfection ability

## CCCCCCCCCCCCCC#CCCC(=O)OC[C@H](COP(=O)(O)OCCN)OC(=O)CCC#CCCCCCCCCCCCCC [DO(4-yne)PE]
Panc-1 cells; CDAN:Helper Lipid, 2:3, repeat, liposomes not fresh, LMDs fresh, FIG. 18
  Transfection (β-galactosidase activity): fallen to around that of Transfast
Panc-1 cells; [3]
  Transfection (β-galactosidase activity): transfect well and approximately to the same degree; also recorded: all transfect equally well
Panc-1 cells; [4]
  Transfection (β-galactosidase activity): transfect the best, up to five times better than DOPE
Panc-1 cells; [5]
  Transfection (β-galactosidase activity): transfect very poorly
COS-7 cells; 1:1 liposomes
  Transfection relative to DOPE (fraction): about 1/3
COS-7 cells; [6]
  Fall in transfection on substituting DOPE: about 67%

## CCCCCCCCC#CCCCCCCCC(=O)OCC(C[N+](C)(C)C)OC(=O)CCCCCCCC#CCCCCCCCC.COS(=O)(=O)[O-] (stereo not drawn) [DO(9-yne)TAP]
Panc-1 cells; LMDs of Cholesterol:Cationic Lipid, 1:1 liposomes, FIG. 22
  Transfection (β-galactosidase activity): transfects as well as DOTAP
Panc-1 cells; [7]
  Transfection (β-galactosidase activity): a small increase in transfection
COS-7 cells; [8]
  Transfection (β-galactosidase activity): transfects around one and-a-half times better than standard DOTAP; also recorded: transfect as well as DOTAP liposomes

## CCCC#CCCCCCCCCCCCCC(=O)OC[C@H](COP(=O)(O)OCCN)OC(=O)CCCCCCCCCCCCC#CCCC [DO(14-yne)PE]
Panc-1 cells; [3]
  Transfection (β-galactosidase activity): transfects around half as well as DOPE
Panc-1 cells; [4]
  Transfection (β-galactosidase activity): transfects the least well out of the monoacetylenic analogues
Panc-1 cells; [5]
  Transfection (β-galactosidase activity): transfect very poorly
COS-7 cells; 1:1 liposomes
  Transfection relative to DOPE (fraction): about 1/3
COS-7 cells; [6]
  Fall in transfection on substituting DOPE: about 67%

## CCCC#CCCCCCCCCCCCCC(=O)OCC(C[N+](C)(C)C)OC(=O)CCCCCCCCCCCCC#CCCC.COS(=O)(=O)[O-] (stereo not drawn) [DO(14-yne)TAP]
Panc-1 cells; Cholesterol:Cationic Lipid, 1:1 liposomes, FIG. 22
  Loss of transfection activity on replacing DOTAP: around 30%
Panc-1 cells; LMDs composed entirely of DOTAP or DOTAP-analogue liposomes, FIG. 19
  Transfection (β-galactosidase activity): a six-fold improvement on standard DOTAP; also recorded: transfect up to six times better than DOTAP; also recorded: transfects better than DOTAP
Panc-1 cells; [7]
  Transfection (β-galactosidase activity): a seven-fold increase
COS-7 cells; [8]
  Transfection (β-galactosidase activity): almost total loss of transfection activity; also recorded: almost no transfection at all

## CCCCCCCC/C=C\CCCCCCCC(=O)OC[C@H](COP(=O)([O-])OCC[N+](C)(C)C)OC(=O)CCCCCCC/C=C\CCCCCCCC [DOPC]
COS-7 cells; [2]
  Transfection (β-galactosidase activity): transfect equally well
[1]
  In vitro transfection in cationic liposome formulations: eliminate or severely attenuate transfection

## CCCCCCCC/C=C\CCCCCCCC(=O)OCC(COP(=O)(O)OCCN)OC(=O)CCCCCCC/C=C\CCCCCCCC (stereo not drawn) [DOPE, dioleoylphosphatidylethanolamine]
Panc-1 cells; [3]
  Transfection (β-galactosidase activity): transfect well and approximately to the same degree; also recorded: all transfect equally well
Panc-1 cells; [4]
  Transfection (β-galactosidase activity): below that of Transfast
Panc-1 cells; [5]
  Transfection (β-galactosidase activity): transfects around as twice as well as the nearest acetylenic analogue; also recorded: transfects better than all the monoacetylenic analogues
COS-7 cells; LMDs of CDAN:Helper Lipid, 1:1 liposomes, DOPE-analogues, FIG. 14
  Transfection (β-galactosidase activity): transfection levels are high and approximately the same; also recorded: transfect COS-7 cells very well and to a similar degree
